Experimental data: US20230136562A1, “SPIROUREA DERIVATIVES” (Idorsia Pharmaceuticals Ltd, priority 2020, published 2023)
Read-outs that look alike come from different tables or passages of the source.

Test system: primary neuronal cultures from embryonic rat brains
Assay: Rat oscillation assay (FLIPR, neuronal calcium oscillations)
Assay type: cell-based
Outline: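 Cortical neurons from E18 Wistar rat embryos, cultured 8–10 days at high density, loaded with 1 μM Fluo-8 AM; calcium oscillations recorded by FLIPR once per second in Mg-free HBSS with 2 mM CaCl2, 20 mM HEPES, pH 7.4. Two acquisitions ("Acute", 500 sec, compound added at 250 sec; "20 min"), ± Kv7 blocker XE-991.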

[1] = Rattus norvegicus, 20 min, AUC of fluorescence measured 20 min after compound addition, read-out: FLIPR: IC50 [nM] 20 min
[2] = Rattus norvegicus, Acute phase, ratio of AUC fluorescence before and after compound addition, read-out: FLIPR: IC50 [nM] acute

SMILES: CC(Oc1cccc(C2(NC(=O)NC3CC4(CCC4)C3)CC2)c1)C(F)(F)F (single isomer, unassigned) [Example 170, 1-Spiro[3.3]hept-2-yl-3-{1-[3-(2,2,2-trifluoro-1-methyl-ethoxy)-phenyl]-cyclopropyl}-urea]
- IC50 (AUC of fluorescence measured 20 min after compound addition, read-out: FLIPR: IC50 [nM] 20 min): 59 nM
- IC50 (Acute phase, ratio of AUC fluorescence before and after compound addition, read-out: FLIPR: IC50 [nM] acute): 76 nM

SMILES: O=C(NCc1cc(F)cc(C(F)(F)F)c1)NC1CC2(CCC2)C1 [Example 18, 1-(3-Fluoro-5-trifluoromethyl-benzyl)-3-spiro[3.3]hept-2-yl-urea]
- IC50 [1]: 65 nM
- IC50 [2]: 109 nM

SMILES: Cc1ccc(CNC(=O)NC2CC3(CCC3)C2)cc1OCC(F)(F)F [Example 109, 1-[4-Methyl-3-(2,2,2-trifluoro-ethoxy)-benzyl]-3-spiro[3.3]hept-2-yl-urea]
- IC50 [1]: 262 nM
- IC50 [2]: 200 nM

SMILES: CC(NC(=O)NC1CC2(CCC2)C1)c1cccc(OCC(F)(F)F)c1F (racemic) [Example 98, (±)-1-{1-[2-Fluoro-3-(2,2,2-trifluoro-ethoxy)-phenyl]-ethyl}-3-spiro[3.3]hept-2-yl-urea]
- IC50 [1]: 14 nM
- IC50 [2]: 11 nM

SMILES: CC(NC(=O)NC1CC2(CCC2)C1)c1cccc(OC(C)C(F)(F)F)c1 (stereo not shown) [Example 102, 1-(Spiro[3.3]heptan-2-yl)-3-(1-(3-((1,1,1-trifluoropropan-2-yl)oxy)phenyl)ethyl)urea]
- IC50 [1]: 0.5 nM
- IC50 [2]: 2.8 nM

SMILES: COCC(NC(=O)NC1CC2(CC2)C1)c1cccc(C(F)(F)F)c1 (racemic) [Example 147, (±)-1-[2-Methoxy-1-(3-trifluoromethyl-phenyl)-ethyl]-3-spiro[2.3]hex-5-yl-urea]
- IC50 [1]: 23 nM
- IC50 [2]: 18 nM

SMILES: O=C(NC1CC2(CCC2)C1)NC1(c2ccnc(OCC(F)(F)F)c2)CCOCC1 [Example 49, 1-Spiro[3.3]hept-2-yl-3-{4-[2-(2,2,2-trifluoro-ethoxy)-pyridin-4-yl]-tetrahydro-pyran-4-yl}-urea]
- IC50 [1]: 1530 nM
- IC50 [2]: 680 nM

SMILES: C[C@H](NC(=O)NC1CC2(CCC2)C1)c1cc(C(F)(F)F)ccc1Br (single isomer, unassigned) [Example 190]
- IC50 [1]: 200 nM
- IC50 [2]: 286 nM
- activity compared with the (R) enantiomer (assay not given): more active than the (R) enantiomer

SMILES: O=C(NCc1cc(C(F)(F)F)ccc1F)NC1CC2(CCC2)C1 [Example 16, 1-(2-Fluoro-5-trifluoromethyl-benzyl)-3-spiro[3.3]hept-2-yl-urea]
- IC50 [1]: 196 nM
- IC50 [2]: 224 nM

SMILES: CC(NC(=O)NC1CC2(CC2)C1)c1ccnc(OC(F)F)c1 (racemic) [Example 139, (±)-1-[1-(2-Difluoromethoxy-pyridin-4-yl)-ethyl]-3-spiro[2.3]hex-5-yl-urea]
- IC50 [1]: 365 nM
- IC50 [2]: 186 nM

SMILES: CC(NC(=O)NC1CC2(CCC2)C1)c1cc(OCC(F)(F)F)ccc1F (racemic) [Example 99, (±)-1-{1-[2-Fluoro-5-(2,2,2-trifluoro-ethoxy)-phenyl]-ethyl}-3-spiro[3.3]hept-2-yl-urea]
- IC50 [1]: 20 nM
- IC50 [2]: 32 nM

SMILES: CC(NC(=O)NC1CC2(CC2)C1)c1cc(OCC(F)(F)F)ccc1F (racemic) [Example 129, (±)-1-{1-[2-Fluoro-5-(2,2,2-trifluoro-ethoxy)-phenyl]-ethyl}-3-spiro[2.3]hex-5-yl-urea]
- IC50 [1]: 254 nM
- IC50 [2]: 212 nM

SMILES: COC[C@H](NC(=O)NC1CC2(CC2)C1)c1ccnc(OCC(F)(F)F)c1 (single isomer, unassigned) [Example 188]
- IC50 [1]: 5.6 nM
- IC50 [2]: 5.3 nM

SMILES: O=C(NCc1cccc(OC(F)(F)F)c1F)NC1CC2(CC2)C1 [Example 134, 1-(2-Fluoro-3-trifluoromethoxy-benzyl)-3-spiro[2.3]hex-5-yl-urea]
- IC50 [1]: 82 nM
- IC50 [2]: 63 nM

SMILES: CS(=O)(=O)CCC(NC(=O)NC1CC2(CCC2)C1)c1cccc(C(F)(F)F)c1 (racemic) [Example 81, (±)-1-[3-Methanesulfonyl-1-(3-trifluoromethyl-phenyl)-propyl]-3-spiro[3.3]hept-2-yl-urea]
- IC50 [1]: 941 nM
- IC50 [2]: 2180 nM

SMILES: CC(NC(=O)NC1CC2(CC2)C1)c1cccc(S(F)(F)(F)(F)F)c1 (racemic) [Example 127, (±)-1-(1-(3-(pentafluoro-λ^6-sulfaneyl)phenyl)ethyl)-3-(spiro[2.3]hexan-5-yl)urea]
- IC50 [1]: 22 nM
- IC50 [2]: 19 nM

SMILES: O=C(NCc1nccc(OCC(F)(F)F)n1)NC1CC2(CC2)C1 [Example 126, 1-Spiro[2.3]hex-5-yl-3-[4-(2,2,2-trifluoro-ethoxy)-pyrimidin-2-ylmethyl]-urea]
- IC50 [1]: 7620 nM
- IC50 [2]: 4960 nM

SMILES: Cc1nc(OCC(F)(F)F)cc(C(CO)NC(=O)NC2CC3(CC3)C2)n1 (racemic) [Example 123, (±)-1-{2-Hydroxy-1-[2-methyl-6-(2,2,2-trifluoro-ethoxy)-pyrimidin-4-yl]-ethyl}-3-spiro[2.3]hex-5-yl-urea]
- IC50 [1]: 367 nM
- IC50 [2]: 395 nM

SMILES: O=C(NC1CC2(CCC2)C1)NC1(c2cccc(C(F)(F)F)c2)COC1 [Example 44, 1-Spiro[3.3]hept-2-yl-3-[3-(3-trifluoromethyl-phenyl)-oxetan-3-yl]-urea]
- IC50 [1]: 100 nM
- IC50 [2]: 78 nM

SMILES: O=C(NC1CC2(CC2)C1)NC(c1cccc(C(F)(F)F)c1)C(F)F (racemic) [Example 146, (±)-1-[2,2-Difluoro-1-(3-trifluoromethyl-phenyl)-ethyl]-3-spiro[2.3]hex-5-yl-urea]
- IC50 [1]: 6.6 nM
- IC50 [2]: 4.2 nM

SMILES: O=C(NCc1cccc(S(=O)(=O)C(F)(F)F)c1)NC1CC2(CCC2)C1 [Example 42, 1-Spiro[3.3]hept-2-yl-3-(3-trifluoromethanesulfonyl-benzyl)-urea]
- IC50 [1]: 22 nM
- IC50 [2]: 27 nM

SMILES: COCC(NC(=O)NC1CC2(CCC2)C1)c1cccc(S(C)(=O)=O)c1 (racemic) [Example 86, (±)-1-[1-(3-Methanesulfonyl-phenyl)-2-methoxy-ethyl]-3-spiro[3.3]hept-2-yl-urea]
- IC50 [1]: 91 nM
- IC50 [2]: 110 nM

SMILES: COc1ccc(C(F)(F)F)cc1C(C)NC(=O)NC1CC2(CC2)C1 (racemic) [Example 137, (±)-1-[1-(2-Methoxy-5-trifluoromethyl-phenyl)-ethyl]-3-spiro[2.3]hex-5-yl-urea]
- IC50 [1]: 1020 nM
- IC50 [2]: 1240 nM

SMILES: Cc1ccc(C(C)NC(=O)NC2CC3(CCC3)C2)cc1OCC(F)(F)F (racemic) [Example 26, (±)-1-{1-[4-Methyl-3-(2,2,2-trifluoro-ethoxy)-phenyl]-ethyl}-3-spiro[3.3]hept-2-yl-urea]
- IC50 [1]: 206 nM
- IC50 [2]: 190 nM

SMILES: Cc1ccc(CNC(=O)NC2CC3(CCC3)C2)nc1OCC(F)(F)F [Example 108, 1-[5-Methyl-6-(2,2,2-trifluoro-ethoxy)-pyridin-2-ylmethyl]-3-spiro[3.3]hept-2-yl-urea]
- IC50 [1]: 279 nM
- IC50 [2]: 205 nM

SMILES: Cn1nncc1C(NC(=O)NC1CC2(CCC2)C1)c1cccc(C(F)(F)F)c1 (racemic) [Example 165, (±)-1-[(3-Methyl-3H-[1,2,3]triazol-4-yl)-(3-trifluoromethyl-phenyl)-methyl]-3-spiro[3.3] hept-2-yl-urea]
- IC50 [1]: 289 nM
- IC50 [2]: 145 nM

SMILES: O=C(NC1CC2(CC2)C1)NC(CO)c1cc(OCC(F)(F)F)ncn1 (racemic) [Example 122, (±)-1-{2-Hydroxy-1-[6-(2,2,2-trifluoro-ethoxy)-pyrimidin-4-yl]-ethyl}-3-spiro[2.3]hex-5-yl-urea]
- IC50 [1]: 658 nM
- IC50 [2]: 339 nM

SMILES: CC(NC(=O)NC1CC2(CCC2)C1)c1ccnc(OC(F)F)c1 (racemic) [Example 100, (±)-1-[1-(2-Difluoromethoxy-pyridin-4-yl)-ethyl]-3-spiro[3.3]hept-2-yl-urea]
- IC50 [1]: 3.6 nM
- IC50 [2]: 5.9 nM

SMILES: O=C(NCc1cccc(C(F)F)c1)NC1CC2(CCC2)C1 [Example 15, 1-(3-Difluoromethyl-benzyl)-3-spiro[3.3]hept-2-yl-urea]
- IC50 [1]: 126 nM
- IC50 [2]: 124 nM

SMILES: O=C(NCc1cccc(COC(F)(F)F)c1)NC1CC2(CCC2)C1 [Example 43, 1-Spiro[3.3]hept-2-yl-3-(3-trifluoromethoxymethyl-benzyl)-urea]
- IC50 [1]: 22 nM
- IC50 [2]: 16 nM

SMILES: O=C(NCc1ccnc(OC(F)(F)F)c1)NC1CC2(CC2)C1 [Example 153, 1-Spiro[2.3]hex-5-yl-3-(2-trifluoromethoxy-pyridin-4-ylmethyl)-urea]
- IC50 [1]: 601 nM
- IC50 [2]: 336 nM

SMILES: CC(C)(O)C(NC(=O)NC1CC2(CCC2)C1)c1cccc(C(F)(F)F)c1 (racemic) [Example 45, (±)-1-[2-Hydroxy-2-methyl-1-(3-trifluoromethyl-phenyl)-propyl]-3-spiro[3.3]hept-2-yl-urea]
- IC50 [1]: 628 nM
- IC50 [2]: 549 nM

SMILES: O=C(NC1CC2(CCC2)C1)NC1(c2ccnc(OC(F)F)c2)CCC1 [Example 51, 1-[1-(2-Difluoromethoxy-pyridin-4-yl)-cyclobutyl]-3-spiro[3.3]hept-2-yl-urea]
- IC50 [1]: 65 nM
- IC50 [2]: 80 nM

SMILES: CC(NC(=O)NC1CC2(CCC2)C1)c1ccc(Cl)c(OCC(F)(F)F)c1 (racemic) [Example 27, (±)-1-{1-[4-Chloro-3-(2,2,2-trifluoro-ethoxy)-phenyl]-ethyl}-3-spiro[3.3]hept-2-yl-urea]
- IC50 [1]: 169 nM
- IC50 [2]: 278 nM

SMILES: Cn1nnnc1C(NC(=O)NC1CC2(CCC2)C1)c1cccc(C(F)(F)F)c1 (racemic) [Example 163, (±)-1-[(1-Methyl-1H-tetrazol-5-yl)-(3-trifluoromethyl-phenyl)-methyl]-3-spiro[3.3]hept-2-yl-urea]
- IC50 [1]: 282 nM
- IC50 [2]: 204 nM

SMILES: O=C(NC1CC2(CCC2)C1)N[C@H](c1cccc(C(F)(F)F)c1)C(F)(F)F (single isomer, unassigned) [Example 178]
- IC50 [1]: 11 nM
- IC50 [2]: 16 nM
